From ChEMBL document CHEMBL5154837, “Discovery, optimization and evaluation of 1-(indolin-1-yl)ethan-1-ones as novel selective TRIM24/BRPF1 bromodomain inhibitors” (Eur J Med Chem, 2022)
Activity calls are given as the source filed them. The calls are words filed in the database; no cut-off is given here.

How the values were obtained:
[1] = Apparent permeability of the compound across apical to basolateral side in human Caco-2 cells at 10 uM incubated for 120 mins and measured by LC-MS/MS analysis
[2] = Apparent permeability of the compound across basolateral to apical side in human Caco-2 cells at 10 uM incubated for 120 mins and measured by LC-MS/MS analysis
[3] = Apparent permeability of the compound across apical to basolateral side in human Caco-2 cells at 10 uM incubated for 120 mins assessed as drug recovery and measured by LC-MS/MS analysis
[4] = Apparent permeability of the compound across basolateral to apical side in human Caco-2 cells at 10 uM incubated for 120 mins assessed as drug recovery and measured by LC-MS/MS analysis
[5] = Efflux ratio of apparent permeability from basolateral to apical side over apical to basolateral side in human Caco-2 cells at 10 uM incubated for 120 mins and measured by LC-MS/MS analysis
LNCaP C4-2B [6] = assay: Antiproliferative activity against human LNCaP C4-2B cells measured after 96 hrs by Cell Titer-Glo assay; assay type: functional, cell-based
LNCaP [7] = assay: Antiproliferative activity against human LNCaP cells measured after 96 hrs by Cell Titer-Glo assay; assay type: functional, cell-based
CWR22R [8] = assay: Antiproliferative activity against human 22Rv1 cells measured after 96 hrs by Cell Titer-Glo assay; assay type: functional, cell-based; details: 22Rv1, 96 h
[9] = biological target: T1, Transcription intermediary factor 1-alpha (Homo sapiens, UniProt O15164); assay: Inhibition of TRIM24 (unknown origin) measured alphascreen assay
T1 sequence (O15164 whole entry): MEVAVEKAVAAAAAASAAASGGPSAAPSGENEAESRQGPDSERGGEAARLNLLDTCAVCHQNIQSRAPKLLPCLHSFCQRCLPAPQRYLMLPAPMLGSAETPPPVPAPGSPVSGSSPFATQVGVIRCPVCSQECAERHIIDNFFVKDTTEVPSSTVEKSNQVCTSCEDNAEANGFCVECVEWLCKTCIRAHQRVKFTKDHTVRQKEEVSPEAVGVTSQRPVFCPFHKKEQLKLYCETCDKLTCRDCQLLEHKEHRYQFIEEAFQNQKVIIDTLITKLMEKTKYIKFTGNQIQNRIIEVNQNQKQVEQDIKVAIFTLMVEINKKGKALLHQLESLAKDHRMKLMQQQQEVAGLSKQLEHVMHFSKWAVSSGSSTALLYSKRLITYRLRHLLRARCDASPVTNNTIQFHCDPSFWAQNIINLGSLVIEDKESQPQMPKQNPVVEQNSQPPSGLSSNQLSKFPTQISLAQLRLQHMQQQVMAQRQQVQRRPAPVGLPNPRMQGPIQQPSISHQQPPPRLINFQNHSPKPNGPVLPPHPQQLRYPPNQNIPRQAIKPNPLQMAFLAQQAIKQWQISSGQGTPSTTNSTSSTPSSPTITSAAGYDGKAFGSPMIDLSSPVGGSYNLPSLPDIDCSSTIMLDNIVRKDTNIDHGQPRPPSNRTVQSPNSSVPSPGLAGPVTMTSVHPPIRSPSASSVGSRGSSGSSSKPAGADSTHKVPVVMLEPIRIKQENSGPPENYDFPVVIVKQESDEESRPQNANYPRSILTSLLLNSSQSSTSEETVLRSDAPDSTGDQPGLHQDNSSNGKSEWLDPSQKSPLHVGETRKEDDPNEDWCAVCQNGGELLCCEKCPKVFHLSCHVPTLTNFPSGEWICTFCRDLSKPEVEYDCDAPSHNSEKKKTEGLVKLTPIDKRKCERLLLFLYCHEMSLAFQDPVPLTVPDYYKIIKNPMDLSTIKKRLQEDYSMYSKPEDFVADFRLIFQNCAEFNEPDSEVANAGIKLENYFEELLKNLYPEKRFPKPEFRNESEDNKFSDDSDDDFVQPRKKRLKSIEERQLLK

Peregrin = biological target: T2, Peregrin (Homo sapiens, UniProt P55201); assay: Inhibition of BRPF1 (unknown origin) measured alphascreen assay
T2 sequence (P55201 whole entry): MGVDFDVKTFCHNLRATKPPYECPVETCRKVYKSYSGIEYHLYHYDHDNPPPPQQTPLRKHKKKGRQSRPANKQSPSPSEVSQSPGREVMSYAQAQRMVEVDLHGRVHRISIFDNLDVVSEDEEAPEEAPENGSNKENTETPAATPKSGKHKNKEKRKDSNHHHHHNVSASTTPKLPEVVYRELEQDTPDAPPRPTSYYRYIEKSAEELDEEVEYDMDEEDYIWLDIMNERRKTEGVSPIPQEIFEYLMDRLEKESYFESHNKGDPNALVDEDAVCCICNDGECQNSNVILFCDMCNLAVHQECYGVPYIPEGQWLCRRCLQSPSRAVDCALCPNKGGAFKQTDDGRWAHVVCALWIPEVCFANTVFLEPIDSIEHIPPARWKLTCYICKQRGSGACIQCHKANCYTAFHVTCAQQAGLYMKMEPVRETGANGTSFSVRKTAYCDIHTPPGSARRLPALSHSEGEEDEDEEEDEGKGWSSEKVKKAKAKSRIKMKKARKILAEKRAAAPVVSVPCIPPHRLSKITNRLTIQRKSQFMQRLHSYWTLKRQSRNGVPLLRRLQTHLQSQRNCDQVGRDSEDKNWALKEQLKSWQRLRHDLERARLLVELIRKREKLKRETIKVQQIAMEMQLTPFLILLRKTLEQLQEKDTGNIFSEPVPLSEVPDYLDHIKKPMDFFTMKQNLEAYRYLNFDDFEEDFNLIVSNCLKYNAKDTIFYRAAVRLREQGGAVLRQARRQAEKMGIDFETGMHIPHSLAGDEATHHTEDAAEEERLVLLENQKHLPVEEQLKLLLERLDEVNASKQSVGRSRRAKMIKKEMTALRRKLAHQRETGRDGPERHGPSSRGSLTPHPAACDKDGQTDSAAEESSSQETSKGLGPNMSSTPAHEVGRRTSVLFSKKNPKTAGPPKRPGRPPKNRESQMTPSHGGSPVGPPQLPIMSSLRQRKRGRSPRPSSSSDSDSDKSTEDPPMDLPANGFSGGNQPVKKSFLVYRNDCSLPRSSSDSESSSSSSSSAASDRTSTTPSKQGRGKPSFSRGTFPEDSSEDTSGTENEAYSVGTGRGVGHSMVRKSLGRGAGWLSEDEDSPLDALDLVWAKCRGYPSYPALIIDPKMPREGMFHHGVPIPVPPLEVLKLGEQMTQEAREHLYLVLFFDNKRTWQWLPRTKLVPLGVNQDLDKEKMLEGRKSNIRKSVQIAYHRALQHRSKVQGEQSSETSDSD

LNCaP C4-2B [10] = assay: Inhibition of clonogenicity in human LNCaP C4-2B cells assessed as reduction in colony formation at 1 uM measured by crystal violet staining based analysis; assay type: functional
CWR22R [11] = assay: Inhibition of clonogenicity in human 22Rv1 cells assessed as reduction in colony formation at 1 uM measured by crystal violet staining based analysis; assay type: functional
CWR22R [12] = assay: Downregulation of full-length AR mRNA expression in human 22Rv1 cells at 5 uM measured by RT-PCR analysis; assay type: functional, cell-based
CWR22R [13] = assay: Downregulation of AR-V7 mRNA expression in human 22Rv1 cells at 5 uM measured by RT-PCR analysis; assay type: functional, cell-based
CWR22R [14] = assay: Downregulation of PSA mRNA expression in human 22Rv1 cells at 5 uM measured by RT-PCR analysis; assay type: functional, cell-based
CWR22R [15] = assay: Downregulation of KLK2 mRNA expression in human 22Rv1 cells at 5 uM measured by RT-PCR analysis; assay type: functional, cell-based
CWR22R [16] = assay: Downregulation of TMPRSS2 mRNA expression in human 22Rv1 cells at 5 uM measured by RT-PCR analysis; assay type: functional, cell-based
CWR22R [17] = assay: Downregulation of C-MYC mRNA expression in human 22Rv1 cells at 5 uM measured by RT-PCR analysis; assay type: functional, cell-based
LNCaP [18] = assay: Suppression of PSA gene expression in human LNCaP cells assessed as mRNA level at 0.4 to 10 uM measured by luciferase gene reporter assay; assay type: functional, cell-based; details: dose 0.4-10 µM
CWR22R [19] = assay: Antitumor activity against human 22Rv1 cells xenografted in […] mouse assessed as tumor growth inhibition at 50 mg/kg, ip administered once daily for 21 days; assay type: functional; details: 22Rv1, 504 h, time 21 day, read-out: TGI
[20] = Toxicity in […] mouse xenografted with human 22Rv1 cells assessed as body weight loss at 50 mg/kg, ip administered once daily for 21 days; assay type: organism-based, CWR22R; details: in vivo, 504 h, time 21 day

Papp B→A at 2 h, 10 µM [2]	recovery at 2 h, 10 µM [3]	recovery at 2 h, 10 µM [4]	IC50 (LNCaP C4-2B [6])	IC50 (LNCaP [7])	IC50 [9]	Compound	IC50 (CWR22R [8])	also measured
					38.4 µM	COc1cccc(NS(=O)(=O)c2ccc3c(c2)CCN3C(C)=O)c1		
			0.78 µM	1.07 µM	0.98 µM	COc1ccc(C2CC2)cc1S(=O)(=O)Nc1ccc2c(c1)CCN2C(C)=O	0.82 µM	IC50 (Peregrin): 1.16 µM; inhibition at 1 µM (LNCaP C4-2B [10]): < 5%; inhibition at 1 µM (CWR22R [11]): < 5%; Activity (CWR22R [12]): Active; Activity (CWR22R [13]): Active; Activity (CWR22R [14]): Active; Activity (CWR22R [15]): Active; Activity (CWR22R [16]): Active; Activity (CWR22R [17]): Active; Activity (LNCaP [18]): Active; inhibition in vivo at 50 mg/kg (CWR22R [19]): 53%; Activity [20]: Non-Toxic

The next lines start with the compound.

Compound	Papp B→A at 2 h, 10 µM [2]	recovery at 2 h, 10 µM [3]	recovery at 2 h, 10 µM [4]	IC50 (LNCaP C4-2B [6])	IC50 (LNCaP [7])	IC50 [9]	IC50 (CWR22R [8])	also measured
CC(C)NCC(O)COc1cccc2ccccc12 (stereo not given) [PROPRANOLOL]	20.9 ×10⁻⁶ cm/s	78.5%	99.2%					Papp A→B at 2 h, 10 µM [1]: 22.1 ×10⁻⁶ cm/s
C[C@H]1O[C@@H](O[C@H]2[C@@H](O)C[C@H](O[C@H]3[C@@H](O)C[C@H](O[C@H]4CC[C@@]5(C)[C@H](CC[C@@H]6[C@@H]5C[C@@H](O)[C@]5(C)[C@@H](C7=CC(=O)OC7)CC[C@]65O)C4)O[C@@H]3C)O[C@@H]2C)C[C@H](O)[C@@H]1O [DIGOXIN]	8.97 ×10⁻⁶ cm/s	88.8%	98.6%					efflux ratio at 2 h, 10 µM [5]: 9.69
CCCOc1cc(OCCCCN(C)C)cc(Oc2cc3c(cc2NS(=O)(=O)c2ccc(OC)c(OC)c2)n(C)c(=O)n3C)c1				13.6 µM	12.2 µM		10.8 µM	
CC(C)NCC(O)COc1ccc(CC(N)=O)cc1 (stereo not given) [ATENOLOL]		92.7%	92.3%					
